Reference: patent US9428465B2, “Acid ceramidase inhibitors and their use as medicaments” (FONDAZIONE ISTITUTO ITALIANO DI TECHNOLOGIA, priority 2012, dated 2016)
pIC50: −log10 of the molar value.

How the values were obtained:
SW403 cells [1] = assay: Isobolographic analysis of combined treatment of SW403 cells (ED50, trypan blue assay); format: cell-based, human
Procedure: Interaction between drugs was assessed by isobolographic analysis, based on the concept of dose-equivalence which follows from the dose effect curves of the individual drugs (Tallarida R I, Interactions between drugs and occupied receptors. Pharmacol. Ther. 2007, 113, 197-209; Tallarida R J, Raffa R B, The application of drug dose equivalence in the quantitative analysis of receptor occupation and drug combinations. Pharmacol. Ther. 2010; 127, 165-174). Specifically, the individual drugs' potency and efficacy allow calculating the expected effect of a combination of the two drugs.
In the experiment of combined treatment, isobolograms were constructed by plotting on vertical and horizontal axes the ED50 data of the single drugs measured by trypan blue assay after subcronic treatment for 72 hrs. The straight line with axial intercepts represents the isobole of additivity and allows calculating the theoretical additive dose. Synergism is indicated by an observed pair (x, y) that plots below the isobole for the specified effect, whereas sub-additivity is indicated when an observed pair (x, y) plots above the isobole.

[2] = target: rat acid ceramidase (rAC) (Rattus norvegicus (Rat), UniProt Q6P7S1); assay: Rat acid ceramidase (rAC) enzymatic assay, LC/MS of lauric acid; format: biochemical; settings: rat acid ceramidase, 100 μM N-lauroyl ceramide, pH 4.5
Procedure: A lysosomal rat acid ceramidase (rAC) protein preparation was obtained from cells stably expressing rAC resuspended in 20 mM Tris HCl (pH 7.5) with 0.32 M sucrose. Samples were sonicated and centrifuged at 800×g for 15 min at 4° C. Supernatants were then centrifuged at 12,000×g for 30 min at 4° C. Pellets were re-suspended in PBS pH 7.4 and subjected to 2 freeze-thaw cycles at −80° C. The suspension was finally centrifuged at 105,000×g for 1 hr at 4° C. and the supernatant containing rAC was then used in the enzymatic assay.
r-AC protein samples were pre-incubated with various concentrations of test compounds or vehicle control in 100 mM NaH2PO4/citrate buffer pH 4.5, 0.1% Nonidet P-40, 3 mM DTT for 30 min at 37° C. Samples were incubated with 100 μM N-lauroyl ceramide (Nu-Chek Prep, Elysian, Minn.) at 37° for 30 min. The reaction was stopped by addition of a mixture of chloroform/methanol (2:1 vol/vol) containing 1 nmol of heptadecanoic acid (HDA; NuChek Prep). The organic phases were collected, dried under nitrogen, and analyzed by LC/MS in the negative-ion mode using heptadecanoic acid (HDA) as internal standard (m/z=199 for lauric acid, m/z=269 for HDA). HDA was eluted on an XDB Eclipse C18 column isocratically at 2.2 mL/min for 1 min with a solvent mixture of 95% methanol and 5% water, both containing 0.25% acetic acid, and 5 mM ammonium acetate. The column temperature was 50° C. Electrospray ionization (ESI) was in the negative mode, capillary voltage was 4 kV, and fragmentor voltage was 100 V. Nitrogen was used as drying gas at a flow rate of 13 L/min and at a temperature of 350° C. Nebulizer pressure was set at 60 psi. We monitored [M-H]− in the selected-ion monitoring (SIM) mode using HDA as internal standard.
Inhibition of rAC activity was calculated as a reduction of lauric acid in the samples compared to vehicle controls. Median inhibitory concentration (IC50) values were calculated by non-linear regression analysis of log [concentration]/inhibition curves using. GraphPad Prism 5 (GraphPad Software, Inc., CA, USA) applying a standard slope curve fitting.

SW403 cells [3] = assay: SW403 cell viability, trypan blue assay; format: cell-based, human; settings: prolonged (72 hrs) treatment, concentration-response, FIGS. 2A and 2B
Procedure: (§1) Cells were seeded in 12- or 96-well plates in complete medium 24 hrs before treatment and then incubated for 24 hrs (single treatment) or 72 hrs (multiple treatments) with different drug concentrations in media without serum. Cell viability was then evaluated.
The trypan blue exclusion assay is based on the principle that viable cells have intact cell membrane and can therefore exclude the trypan blue dye. Cell viability was measured after 24 hrs incubation with the drug. Cells were harvested, centrifuged at 1200 rpm for 10 min and pellets re-suspended in PBS. To evaluate viability, cells were diluted 1:1 with 0.4% trypan blue dye (Sigma), incubated for 1 min and white (viable) cells were counted with a hemacytometer.

SW403 cells [4] = assay: SW403 cell viability, MTT assay; format: cell-based, human
Procedure: as §1
Alternatively, cell viability was assessed measuring mitochondrial functionality by the MIT assay, which is based on the reduction of the soluble tetrazolium salt MTT [(3-(4,5-dimethylthiazol-2-yl)-2,5-diphenyltetrazolium bromide] into insoluble formazan by mitochondria. Briefly, after treatment, cells were washed with PBS and incubated with 0.5 mg/ml, MTT for 2 hrs at room temperature, MTT reduction was quantified by absorbance at 570 nm using a UV-visible plate reader.

[5] = test system: human colon adenocarcinoma cell line SW403; assay: Ceramide levels in SW403 cells (lipid extraction, LC/MS); format: cell-based; settings: 3 μM, 3 hrs, vs. vehicle
Procedure: Lipids were extracted using a chloroform/methanol mixture (2:1 vol/vol, 3 mL) containing internal standards. The organic phases were collected, dried under nitrogen, and dissolved in methanol/chloroform (3:1 vol/vol) for LC/MS analyses.
Ceramides were analyzed by LC/MS^n, using a 1100-LC system (Agilent Technologies) equipped with an Ion Trap XCT and interfaced with ESI (Agilent Technologies). They were separated on a Poroshell 300 SB C18 column (2.1×75 mm i.d., 5 μm; Agilent Technologies) maintained at 30° C. A linear gradient of methanol in water containing 5 mM ammonium acetate and 0.25% acetic acid (from 80% to 100% of methanol in 3 man) was applied at a flow rate of 1 mL/min. […]
Tissue-derived ceramides were identified by comparison of their LC retention times and MS^n fragmentation patterns with those of authentic standards (Avanti Polar Lipids). Extracted ion chromatograms were used to quantify myristoyl ceramide (C140, m/z 510.5>492.5>264.3), palmitoyl ceramide (C16:0, m/z 538.5>520.3>264.3), stearoyl ceramide (C18:0 m/z 566.5>548.3>264.3), lignoceroylceramide (C24:0 m/z 650.5>632.3>264.3), nervonoylceramide (C24:1 m/z 648.5>630.3>264.3) and using lauroyl ceramide standard (m/z 482.5>464.5>264.3). […]

[6] = SW403 cells, 72 hrs, isobole of additivity, higher than the experimental values

rat acid ceramidase (rAC), sequence (Q6P7S1 142-394): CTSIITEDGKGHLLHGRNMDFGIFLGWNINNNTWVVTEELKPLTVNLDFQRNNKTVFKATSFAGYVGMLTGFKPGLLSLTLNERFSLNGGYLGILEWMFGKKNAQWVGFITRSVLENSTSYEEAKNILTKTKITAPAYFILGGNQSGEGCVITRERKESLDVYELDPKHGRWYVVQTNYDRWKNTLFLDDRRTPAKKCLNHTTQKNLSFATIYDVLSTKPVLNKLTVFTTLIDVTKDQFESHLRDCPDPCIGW
rat acid ceramidase (rAC), sequence (Q6P7S1 21-141): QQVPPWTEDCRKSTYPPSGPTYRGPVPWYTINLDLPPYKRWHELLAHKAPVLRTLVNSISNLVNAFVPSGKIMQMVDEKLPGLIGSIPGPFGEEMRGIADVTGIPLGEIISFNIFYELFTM

CCCCCCNC(=O)n1cc(Br)c(=O)[nH]c1=O [Example 5, 5-bromo-N-hexyl-2,4-dioxo-pyrimidine-1-carboxamide]
theoretical dose (Th) to be used with 20 nM taxol to obtain an additive effect (SW403 cells [1]; [6]): 9.5 µM | theoretical dose (Th) to be used with 300 nM 5FU to obtain an additive effect (SW403 cells [1]; [6]): 14.9 µM | interaction with taxol in reducing viability of SW403 cells (isobologram) (SW403 cells [1]; prolonged treatment, 20 nM taxol, trypan blue ED50): synergistic effect | interaction with 5-fluorouracil in reducing viability of SW403 cells (isobologram) (SW403 cells [1]; prolonged treatment, 300 nM 5FU, trypan blue ED50): synergistic effect | pIC50 [2]: 7.29 | SW403 cell viability (trypan blue assay) (SW403 cells [3]): reduction of the viability | interaction with 5FU in reducing cell viability (MTT assay) (SW403 cells [4]; 72 hrs, compound 30 μM + 5FU 300 nM): synergistic effect | SW403 cell viability (MTT assay) (SW403 cells [4]; sub-chronic treatment 72 hrs, compounds 30 μM, 5FU 300 nM): reduced cell viability | levels of C14:0, C16:0 and C18:0 ceramide [5]: increased
